Inconclusive results and toxic doses are left out.
Tested on: L1210 leukemia ip in BDF1 mice, survival T/C
Test: NCI In Vivo Anticancer Drug Screen. Data for tumor model L1210 Leukemia (intraperitoneal) in B6D2F1 (BDF1) mice
Details: endpoint: mean survival time, higher = longer survival
Procedure, shortened: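 Survival endpoint. Drug-treated group vs vehicle group, expressed as T divided by C. Tumor passaged by transplantation.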

[1] = dose: 12.5 mg/kg/injection, schedule: Q01DX009 (ip), vehicle: saline with Tween-80
[2] = dose: 25.0 mg/kg/injection, schedule: Q01DX009 (ip), vehicle: saline with Tween-80
[3] = dose: 50.0 mg/kg/injection, schedule: Q01DX009 (ip), vehicle: saline with Tween-80
[4] = dose: 100.0 mg/kg/injection, schedule: Q04DX003 (ip), vehicle: saline with Tween-80
[5] = dose: 100.0 mg/kg/injection, schedule: Q01DX009 (ip), vehicle: Klucel (hydroxypropylcellulose) (HPC)
[6] = dose: 200.0 mg/kg/injection, schedule: Q01DX009 (ip), vehicle: Klucel (hydroxypropylcellulose) (HPC)
[7] = dose: 400.0 mg/kg/injection, schedule: Q01DX009 (ip), vehicle: Klucel (hydroxypropylcellulose) (HPC)
[8] = dose: 100.0 mg/kg/injection, schedule: Q01DX009 (ip), vehicle: saline with Tween-80
[9] = dose: 200.0 mg/kg/injection, schedule: Q01DX009 (ip), vehicle: saline with Tween-80
[10] = dose: 100.0 mg/kg/injection, schedule: Q04DX002 (ip), vehicle: Klucel (hydroxypropylcellulose) (HPC)
[11] = dose: 200.0 mg/kg/injection, schedule: Q04DX002 (ip), vehicle: Klucel (hydroxypropylcellulose) (HPC)
[12] = dose: 400.0 mg/kg/injection, schedule: Q04DX002 (ip), vehicle: Klucel (hydroxypropylcellulose) (HPC)
[13] = dose: 100.0 mg/kg/injection, schedule: Q04DX003 (ip), vehicle: saline
[14] = dose: 200.0 mg/kg/injection, schedule: Q04DX003 (ip), vehicle: saline
[15] = dose: 400.0 mg/kg/injection, schedule: Q04DX003 (ip), vehicle: saline
[16] = dose: 100.0 mg/kg/injection, schedule: Q01DX009 (ip), vehicle: saline
[17] = dose: 100.0 mg/kg/injection, schedule: Q01DX001 (ip), vehicle: carboxymethylcellulose (CMC)
[18] = dose: 200.0 mg/kg/injection, schedule: Q01DX001 (ip), vehicle: carboxymethylcellulose (CMC)
[19] = dose: 400.0 mg/kg/injection, schedule: Q01DX001 (ip), vehicle: carboxymethylcellulose (CMC)

Compound: CCOC(=O)Nc1cc2c(c(=O)[nH]1)N=C(CN(C)c1ccc(C(=O)OC)cc1)CN2
- T/C (dose: 100.0 mg/kg/injection, schedule: Q01DX001 (ip), vehicle: alkali diluted with saline): 104 % of control
- T/C (dose: 200.0 mg/kg/injection, schedule: Q01DX001 (ip), vehicle: alkali diluted with saline): 96 % of control
- T/C (dose: 400.0 mg/kg/injection, schedule: Q01DX001 (ip), vehicle: alkali diluted with saline): 102 % of control

Compound: O=C1C2C3CCC(O3)C2C(=O)N1Cc1ccccc1CBr (stereo unspecified)
- T/C (dose: 100.0 mg/kg/injection, schedule: Q04DX003 (ip), vehicle: carboxymethylcellulose (CMC)): 95 % of control
- T/C (dose: 200.0 mg/kg/injection, schedule: Q04DX003 (ip), vehicle: carboxymethylcellulose (CMC)): 98 % of control

Compound: O=C(NC/C=C/Br)Nc1cnc2ccccc2c1
- T/C [1]: 96 % of control
- T/C [2]: 101 % of control
- T/C [3]: 96 % of control
- T/C [4]: 89 % of control

Compound: CCCCCCC(CCCCCC)CC1CCCC1
- T/C (dose: 50.0 mg/kg/injection, schedule: Q04DX002 (sc), vehicle: olive oil, sesame oil, peanut oil): 103 % of control
- T/C (dose: 100.0 mg/kg/injection, schedule: Q04DX002 (sc), vehicle: olive oil, sesame oil, peanut oil): 97 % of control
- T/C (dose: 200.0 mg/kg/injection, schedule: Q04DX002 (sc), vehicle: olive oil, sesame oil, peanut oil): 97 % of control

Compound: CC1OCOC2COCOC2C1O (stereo unspecified)
- T/C [5]: 92 % of control
- T/C [6]: 94 % of control
- T/C [7]: 97 % of control

Compound: O=C(Nc1ccccc1)c1ccccc1C(O)(c1ccccc1)c1ccccn1 (stereo unspecified)
- T/C [8]: 95 % of control
- T/C [9]: 97 % of control
- T/C (dose: 400.0 mg/kg/injection, schedule: Q01DX009 (ip), vehicle: saline with Tween-80): 92 % of control

Compound: O=C(O)C1CCC2(CCCCC2)CC1
- T/C (dose: 25.0 mg/kg/injection, schedule: Q01DX009 (ip), vehicle: water): 101 % of control
- T/C (dose: 50.0 mg/kg/injection, schedule: Q01DX009 (ip), vehicle: water): 93 % of control
- T/C (dose: 100.0 mg/kg/injection, schedule: Q01DX009 (ip), vehicle: water): 98 % of control
- T/C (dose: 200.0 mg/kg/injection, schedule: Q01DX009 (ip), vehicle: water): 92 % of control

Compound: O=C(NC(=S)Nc1ccc(F)cc1)c1cccc2ccccc12
- T/C [5]: 96 % of control
- T/C (dose: 100.0 mg/kg/injection, schedule: Q04DX003 (ip), vehicle: Klucel (hydroxypropylcellulose) (HPC)): 104 % of control
- T/C [6]: 91 % of control
- T/C (dose: 200.0 mg/kg/injection, schedule: Q04DX003 (ip), vehicle: Klucel (hydroxypropylcellulose) (HPC)): 100 % of control
- T/C [7]: 101 % of control
- T/C (dose: 400.0 mg/kg/injection, schedule: Q04DX003 (ip), vehicle: Klucel (hydroxypropylcellulose) (HPC)): 97 % of control

Compound: O=C(CCCCCCCCC(=O)Nc1cccc(C2=NCCN2)c1)Nc1cccc(C2=NCCN2)c1
- T/C (dose: 2.5 mg/kg/injection, schedule: Q01DX Z (ip), vehicle: saline): 95 % of control
- T/C (dose: 5.0 mg/kg/injection, schedule: Q01DX Z (ip), vehicle: saline): 91 % of control
- T/C (dose: 10.0 mg/kg/injection, schedule: Q01DX Z (ip), vehicle: saline): 91 % of control

Compound: CCCCCCCCCC(CCCCCCCC(=O)O)NC(C)=O (stereo unspecified)
- T/C (dose: 50.0 mg/kg/injection, schedule: Q01DX001 (ip), vehicle: saline): 97 % of control
- T/C (dose: 100.0 mg/kg/injection, schedule: Q01DX001 (ip), vehicle: saline): 94 % of control
- T/C (dose: 200.0 mg/kg/injection, schedule: Q01DX001 (ip), vehicle: saline): 94 % of control
- T/C (dose: 400.0 mg/kg/injection, schedule: Q01DX001 (ip), vehicle: saline): 94 % of control

Compound: N#CC1C(=O)NC(=O)C(C#N)C12CCN(Cc1ccccc1)CC2 (stereo unspecified)
- T/C (dose: 100.0 mg/kg/injection, schedule: Q01DX001 (ip), vehicle: Klucel (hydroxypropylcellulose) (HPC)): 102 % of control
- T/C (dose: 200.0 mg/kg/injection, schedule: Q01DX001 (ip), vehicle: Klucel (hydroxypropylcellulose) (HPC)): 97 % of control
- T/C (dose: 400.0 mg/kg/injection, schedule: Q01DX001 (ip), vehicle: Klucel (hydroxypropylcellulose) (HPC)): 103 % of control

Compound: COc1cc(C(C)=O)cc(OC)c1Oc1cc(OC)c(OC)c(OC)c1C(C)=O
- T/C [4]: 95 % of control
- T/C (dose: 200.0 mg/kg/injection, schedule: Q04DX003 (ip), vehicle: saline with Tween-80): 97 % of control
- T/C (dose: 400.0 mg/kg/injection, schedule: Q04DX003 (ip), vehicle: saline with Tween-80): 101 % of control

Compound: CCCCCS(=O)(=O)N1CCCC1
- T/C [10]: 107 % of control
- T/C [11]: 103 % of control
- T/C [12]: 111 % of control

Compound: CC/C(C#N)=C(\C)C1CC1
- T/C (dose: 9.5 mg/kg/injection, schedule: Q01DX001 (ip), vehicle: other): 96 % of control
- T/C (dose: 19.0 mg/kg/injection, schedule: Q01DX001 (ip), vehicle: other): 96 % of control
- T/C (dose: 38.0 mg/kg/injection, schedule: Q01DX001 (ip), vehicle: other): 104 % of control

Compound: N#CC1=C(N)CCC(C#N)(c2ccccc2)C1 (stereo unspecified)
- T/C [8]: 98 % of control
- T/C [9]: 91 % of control

Compound: CCCCNC(C)(C)C(SSSC(C)=O)c1ccco1 (stereo unspecified)
- T/C [1]: 100 % of control
- T/C (dose: 12.5 mg/kg/injection, schedule: Q04DX003 (ip), vehicle: saline with Tween-80): 102 % of control
- T/C [2]: 104 % of control
- T/C (dose: 25.0 mg/kg/injection, schedule: Q04DX003 (ip), vehicle: saline with Tween-80): 106 % of control
- T/C [3]: 108 % of control
- T/C (dose: 50.0 mg/kg/injection, schedule: Q04DX003 (ip), vehicle: saline with Tween-80): 96 % of control
- T/C [4]: 102 % of control

Compound: COc1ccc(CC(=O)O)c(OC)c1
- T/C (dose: 100.0 mg/kg/injection, schedule: Q01DX007 (ip), vehicle: saline with Tween-80): 98 % of control
- T/C [13]: 94 % of control
- T/C (dose: 200.0 mg/kg/injection, schedule: Q01DX007 (ip), vehicle: saline with Tween-80): 95 % of control
- T/C [14]: 99 % of control
- T/C [15]: 94 % of control

Compound: Nc1ccn(C2OC(CO)C(O)C2OP(=O)(O)OCC2OC(n3ccc(=O)[nH]c3=O)CC2O)c(=O)n1 (stereo unspecified)
- T/C (dose: 50.0 mg/kg/injection, schedule: Q01DX009 (ip), vehicle: saline): 153 % of control
- T/C [16]: 166 % of control

Compound: CCN(c1ccc(Br)cc1)c1ccc(Br)cc1
- T/C [17]: 100 % of control
- T/C [18]: 94 % of control
- T/C [19]: 105 % of control

Compound: COc1cc(C(=O)N=Nc2c(O)[nH]c3ccc(Br)cc23)cc(OC)c1OC
- T/C [10]: 115 % of control
- T/C [11]: 104 % of control
- T/C [12]: 115 % of control

Compound: COC1CC(C)C(Cl)C(C)C1/C=C/C(=O)O (stereo unspecified)
- T/C (dose: 50.0 mg/kg/injection, schedule: Q01DX001 (ip), vehicle: saline with Tween-80): 101 % of control
- T/C (dose: 100.0 mg/kg/injection, schedule: Q01DX001 (ip), vehicle: saline with Tween-80): 94 % of control
- T/C (dose: 200.0 mg/kg/injection, schedule: Q01DX001 (ip), vehicle: saline with Tween-80): 94 % of control

Compound: CSc1ccc(NC(=O)Nc2c(C)cc(C)cc2C)cc1
- T/C (dose: 25.0 mg/kg/injection, schedule: Q01DX009 (ip), vehicle: other): 92 % of control
- T/C (dose: 50.0 mg/kg/injection, schedule: Q01DX009 (ip), vehicle: other): 93 % of control
- T/C (dose: 100.0 mg/kg/injection, schedule: Q01DX009 (ip), vehicle: other): 102 % of control

Compound: COc1cccc2c1CCC1=C2CC2C(=O)C1CCC2(C)O (stereo unspecified)
- T/C [16]: 109 % of control
- T/C [13]: 94 % of control
- T/C (dose: 200.0 mg/kg/injection, schedule: Q01DX009 (ip), vehicle: saline): 108 % of control
- T/C [14]: 119 % of control
- T/C (dose: 400.0 mg/kg/injection, schedule: Q01DX009 (ip), vehicle: saline): 101 % of control
- T/C [15]: 110 % of control

Compound: Nc1nc(N)c2nc(CNCCc3ccccc3)cnc2n1
- T/C (dose: 20.0 mg/kg/injection, schedule: Q01DX009 (ip), vehicle: Klucel (hydroxypropylcellulose) (HPC)): 100 % of control
- T/C (dose: 40.0 mg/kg/injection, schedule: Q01DX009 (ip), vehicle: Klucel (hydroxypropylcellulose) (HPC)): 102 % of control

Compound: Nc1ccc2c(c1)/C(=N/O)c1ccccc1-2
- T/C [17]: 105 % of control
- T/C [18]: 97 % of control
- T/C [19]: 100 % of control

From PubChem BioAssay AID248 (DTP/NCI, 2004)
